We go through four compounds from PubChem BioAssay AID1506 (NMMLSC, 2009).

Activity calls are given as the source filed them. How the calls were made is not given here.

The assay relates to S. aureus strains, lipase production inhibition. In words: inhibition of S. aureus lipase production, S. aureus quorum sensing inhibitors, NM300, NM400, MRSA3757 (AID 1506). Particulars: for inhibition: stronger effect = higher value.
Setting [1] is: lipase inhibition, MRSA3757, at 12 µM.
[2] abbreviates: lipase inhibition, strain NM400, at 12 µM.

Broadly, the inhibition is the percentage by which the read-out fell short of the control. Turning to `CC1CCCN(C(C(=O)Nc2ccc3c(c2)OCCO3)c2ccccc2)C1` (stereo not given), the outcome (at 12 µM) was “inactive; agr3 active”. Further, the inhibition under setting [1] is 0% and the inhibition under setting [2] came to 68%.

With `CC1CCCN(C(C(=O)Nc2ccc3c(c2)OCO3)c2ccccc2)C1` (stereo not given), the outcome (at 12 µM) was “inactive; agr3 active”. For the same compound, the inhibition reads like this: under setting [1], 0%; under setting [2], 84%.

Regarding `Cc1c(Cl)cccc1Nc1ccccc1C(=O)O`, the inhibition was 80% (at 30 µM) and 90% (lipase inhibition, strain NM300, at 30 µM).

As to `CCc1oc2ccccc2c1C(=O)c1cc(Br)c(O)c(Br)c1`, the inhibition is, setting by setting: (at 6 µM) 80%; (lipase inhibition, strain NM300, at 6 µM) 95%.
